Results on 19 substances are retold here after patent US20240207422A1, “NERVE TARGETING PEPTIDE CONJUGATES AND METHODS OF USE” (Alume Biosciences, Inc., priority 2022, published 2024).

The subject of the assay is human nerve extract. Kind of assay: Phage display selection on plates coated with human nerve extract (Plated Nerve2), NextGen sequence counts. It is filed as binding. As to conditions: unique sequence count (relative enrichment); Plated Nerve2 only. As to the method: Several m13 phage libraries were constructed expressing randomized variants of a parent peptide (QVPWEEPYYVVKKS-SGGL; SEQ ID NO: 576). In particular, the first 14 amino acids of the parent peptide were randomized using degenerate oligonucleotide synthesis to obtain a diverse set of peptides with a mutation rate of about 50% per residue.
To accomplish this, synthesis was carried out by the XXK codon design approach, where X is any base and K is G or T. To bias synthesis towards the parent sequence, synthesis was carried out at each X position with a mixture of about 70%-85% of the parent nucleotide and 15-30% of the remaining 3 nucleotides. The resulting molecules were inserted into fADL-1e (Antibody Design Laboratories), which is a type 3 phage display vector having a cloning site on the N-terminal side of the full-length gene III protein. The fusion proteins are directed to the periplasm by the PelB leader peptide, which is inserted in the vector […].
Collectively, the phage display libraries used in the screens comprised about 600 million peptides, with sequencing analysis confirming a mutation rate of about 50% per residue.
Phage libraries were independently processed, as follows, with five biological samples: two independent samples of excised human nerve tissue, one sample of a human nerve extract, and two independent samples of human muscle tissue, as follows:
Human Nerve Extracts: Phage libraries were incubated for up to 24 hours at 4° C. in 96 well plates that had been coated with a human nerve extract. Plates were then washed with PBS and phage were eluted using 0.2M glycine pH 2.0. Phage supernatants where then neutralized with Tris pH 9.0 prior to plating on TG1 bacteria and LB agar plates. Colonies were counted to determine titer followed by DNA preparation of pools of phage and NextGen sequencing. After rounds of selection, phage were pooled and amplified for iterative selection. Phage that eluted by 0.2M glycine pH 2.0 (the nerve binders) at each round were sequenced. NextGen sequencing of pools after 2, 3 and 4 rounds of selection were used to isolate candidate sequences that were further analyzed using bioinformatics.
NextGen sequencing of pools after 2, 3 and 4 rounds of selection were used to isolate candidate sequences from each of the five samples. These five data sets were then analyzed as described in the next section.
Peptide and vector sequences were translated starting at the first start codon in the nucleotide sequence. […] Trimmed peptides with identical sequences were combined and quantified according to their frequency (count).
Following processing, an R script was written to merge the unique peptide sequences (with counts 6 or greater) from the 5 different data sets to analyze the overlap between nerve and muscle binding activity.
For the single Nerve2, Nerve3, and Plated Nerve2 (pn2) subsets, the number of counts for each group was set at a threshold giving rise to at least 100 peptides. […] As highlighted in yellow in FIG. 1B, the representative group also included 6 unique peptides overlapping between nerve2 and nerve3, 200 unique peptides overlapping between nerve2 and plated nerve2 (at least 60 counts), 4 unique peptides overlapping between nerve3 and plated nerve2. Finally, as highlighted in green in FIG. 1B, the representative group also included […] common to the nerve2, nerve3, and plated nerve2 sets.

As for 539 (HLPCKKSFYACKKH) [compound 539], the Count was determined as 37.
Take 540 (HVRFAEPYYAGKTS) [compound 540]: the Count is listed as 37.
For 541 (LLTGAEPYYLGKRS) [compound 541] the value was 37; for 542 (QLPGAEAQNVVKYS) [compound 542], 37.
For 543 (QLRFDEHHSVVTHS) [compound 543] the value was 37; for 544 (QYPWEQRYYFERKS) [compound 544], 37; for 545 (RVTWEGPYNSVKKS) [compound 545], 37.
In the case of 546 (DVALGESHYNVKKY) [compound 546] it was 36; in that of 547 (DVPNDLPSYLVKNS) [compound 547], 36.
As to 548 (EFPYQESEYIVKQS) [compound 548], the Count came out at 36.
In the case of 549 (GLPSKEPYYVVKPA) [compound 549] it was 36.
In the case of 550 (HVPWDDQYYVWRTN) [compound 550] it was 36; in that of 551 (HVQWDQTSYVVKNS) [compound 551], 36.
As to 552 (HVTSDDSYYAVKNP) [compound 552], the Count worked out at 36.
In the case of 553 (QDPFGDLYYVTKMS) [compound 553] it was 36.
For 554 (QFPYDEPYNVVKKS) [compound 554] the value was 36; for 555 (QHPWKEQYYMATKP) [compound 555], 36; for 556 (QLNSEEPYYHFKNY) [compound 556], 36.
In turn, 557 (QLPTNDPYYVLMES) [compound 557] returned a Count of 36.
